# Measurements published in patent US7381733B2, “Tropane derivatives having dopamine reuptake inhibitor activity for the treatment of ischemic diseases” (Neurosearch A/S, priority 2001, dated 2008).
# Tested on: TH positive cells in the substantia nigra
# Assay: Protection of the substantia nigra after transient global ischaemia in gerbils (TH positive cell count)
# Type: in vivo, Mongolian gerbils
# Details: 2 mg/kg i.p. 2 minutes after end of occlusion
# Protocol: Protection of the Substantia Nigra after Transient Global Ischaemia in Gerbils
# In this experiment, the neuroprotective effect of a test compound is assessed in an animal model of transient global ischaemia.
# Method: In halothane anaesthetised gerbils, right and left carotid arteries are located and occluded for 10 minutes. Animals are kept at normal body temperature before and after the operation using heating lamps. During surgery, the gerbils are placed on heating pads, the body temperature is controlled and maintained at 37±0.5° C. The test compound is dosed at specified time points after the ischaemic insult, either i.v., i.p., s.c. or p.o.
# Fourteen days later, the animals are sacrificed, brains removed and cooled to −70° C. Thereafter, the brains are sectioned in 20 μm thick sections through the substantia nigra region. Sections are stained for tyroxine hydroxylase (TH+) expression using immunohistochemistry. The number of TH+ cells in the sections is counted and the total number of TH+ cells in the substantia nigra is calculated by means of stereology. […]
# After 14 days, the animals were sacrificed and the brains sectioned. […] The total number of TH positive cells after ischemia or in control animals were determined by means of stereological cell counting.
compound,measurement,setting,value
"CON=C[C@@H]1[C@@H](c2ccc(Cl)c(Cl)c2)CC2CC[C@H]1N2C [test compound, (1R,2R,3S)-3-(3,4-dichlorophenyl)-tropane-2-O-methyl-aldoxime]",Mean number of cells (total number of TH positive cells in the substantia nigra),"10 min bilateral carotid artery occlusion, counted after 14 days by stereology, control 9531, ischemia 7510",10615 cells
same,"number of surviving TH positive cells in the substantia nigra after ischemia, compared with untreated ischemia","10 min carotid artery occlusion, 14 days",apparently increased
